Tests used:
[1] = tested on: arrhythmia induced by an intravenous administration of calcium chloride; assay: Antiarrhythmic activity on a model of arrhythmia induced by intravenous calcium chloride (antagonism to calcium) in mice; type: in vivo; details: white mice, 20-40 minutes before
Protocol: The specific (antiarrhythmic) effect and acute toxicity were studied.
The antiarrhythmic activity of the compounds according to the present invention was studied on a model of arrhythmia induced by an intravenous administration of calcium chloride. In experiments on white mice of both sexes with a mass of 18-25 g narcotized by urethane (1,200 mg/kg intraperitoneally) ECG in the second standard lead was recorded. A 2% solution of calcium chloride was introduced into the tail vein at a constant rate (0.01 ml for 2 sec). The dose of calcium chloride causing arrhythmia and the dose causing the heart arrest were determined. In the test groups the test compounds were administered intraperitoneally 20-40 minutes before the beginning of the experiment.

in vivo = details: mouse, in vivo, ip
Protocol: (§1) The study of the effect provided by the compounds according to the present invention on the cardio-vascular system was carried out in experiments on white mice. The specific (antiarrhythmic) effect and acute toxicity were studied.
(§2) The acute toxicity of the compounds according to the present invention was determined in experiments on white mice with a mass of 20-25 g. The test compounds were administered intraperitoneally in the form of aqueous solutions or suspensions in Twin-80. Observation over the test animals was effected for 10 days.

white mice = assay: in vivo; details: mouse, in vivo, ip, 14400 min
Protocol: as §1, §2

## C=CCNC(=S)N(CCC(N)=O)N(C)C [I-18]
[1]; intraperitoneal dose 5 mg/kg
  Dose of calcium chloride causing arrythmia in animals under experiment: 127 mg/kg
  Dose of calcium chloride causing death in animals under experiment: 160,5 mg/kg
[1]; intraperitoneal dose 15 mg/kg
  Dose of calcium chloride causing arrythmia in animals under experiment: 153 mg/kg
  Dose of calcium chloride causing death in animals under experiment: 168 mg/kg
In vivo
  LD50 at 240 h: 2900 mg/kg
White mice
  Relative toxisity to quinidine: 18,6

## CN(C)N(CCC(N)=O)C(=S)Nc1ccccc1 [I-19, 3-(2,2-dimethyl-1-phenylthiocarbamoylhydrazino)propionamide]
[1]; intraperitoneal dose 5 mg/kg
  Dose of calcium chloride causing arrythmia in animals under experiment: 98,3 mg/kg
  Dose of calcium chloride causing death in animals under experiment: 112,0 mg/kg
[1]; intraperitoneal dose 15 mg/kg
  Dose of calcium chloride causing arrythmia in animals under experiment: 110,5 mg/kg
  Dose of calcium chloride causing death in animals under experiment: 130,0 mg/kg
In vivo
  LD50 at 240 h: 1750 mg/kg
White mice
  Relative toxisity to quinidine: 11,2

## CC(CN(C(=S)Nc1ccccc1)N(C)C)C(N)=O (stereo not drawn) [I-20, 3-(2,2-dimethyl-1-phenylthiocarbamoylhydrazino)2-methylpropionamide]
[1]; intraperitoneal dose 5 mg/kg
  Dose of calcium chloride causing arrythmia in animals under experiment: 102 mg/kg
  Dose of calcium chloride causing death in animals under experiment: 123 mg/kg
[1]; intraperitoneal dose 15 mg/kg
  Dose of calcium chloride causing arrythmia in animals under experiment: 106,4 mg/kg
  Dose of calcium chloride causing death in animals under experiment: 118,6 mg/kg
In vivo
  LD50 at 240 h: 1340 mg/kg
White mice
  Relative toxisity to quinidine: 8,6

## CNC(=O)N(CCC#N)N(C)C [I-21, 3-(2,2-dimethyl-1-methylcarbamoylhydrazino)propionitrile]
[1]; intraperitoneal dose 5 mg/kg
  Dose of calcium chloride causing arrythmia in animals under experiment: 87,5 mg/kg
  Dose of calcium chloride causing death in animals under experiment: 111,5 mg/kg
[1]; intraperitoneal dose 25 mg/kg
  Dose of calcium chloride causing arrythmia in animals under experiment: 113,6 mg/kg
  Dose of calcium chloride causing death in animals under experiment: 128,0 mg/kg
In vivo
  LD50 at 240 h: 1800 mg/kg
White mice
  Relative toxisity to quinidine: 11,5

## C=CCNC(=S)N(CCC#N)N(C)C [I-22, 3-(2,2-dimethyl-1-allylthiocarbamoylhydrazino)propionitrile]
[1]; intraperitoneal dose 5 mg/kg
  Dose of calcium chloride causing arrythmia in animals under experiment: 92,5 mg/kg
  Dose of calcium chloride causing death in animals under experiment: 108,0 mg/kg
[1]; intraperitoneal dose 25 mg/kg
  Dose of calcium chloride causing arrythmia in animals under experiment: 130,0 mg/kg
  Dose of calcium chloride causing death in animals under experiment: 146,0 mg/kg
In vivo
  LD50 at 240 h: 1450 mg/kg
White mice
  Relative toxisity to quinidine: 9,3

## CN(C)N(CCC#N)C(=S)Nc1ccccc1 [I-23, 3-(2,2-dimethyl-1-phenylthiocarbamoylhydrazino)propionitrile]
[1]; intraperitoneal dose 5 mg/kg
  Dose of calcium chloride causing arrythmia in animals under experiment: 86 mg/kg
  Dose of calcium chloride causing death in animals under experiment: 101,3 mg/kg
[1]; intraperitoneal dose 25 mg/kg
  Dose of calcium chloride causing arrythmia in animals under experiment: 117,7 mg/kg
  Dose of calcium chloride causing death in animals under experiment: 119,0 mg/kg
In vivo
  LD50 at 240 h: 1680 mg/kg
White mice
  Relative toxisity to quinidine: 10,7

## COC(=O)CCN(C(C)=O)N(C)C [I-24, 3-(2,2-Dimethyl-1-acetylhydrazino)methylpropionate]
[1]; intraperitoneal dose 5 mg/kg
  Dose of calcium chloride causing arrythmia in animals under experiment: 108,0 mg/kg
  Dose of calcium chloride causing death in animals under experiment: 132,0 mg/kg
[1]; intraperitoneal dose 15 mg/kg
  Dose of calcium chloride causing arrythmia in animals under experiment: 116,5 mg/kg
  Dose of calcium chloride causing death in animals under experiment: 140,3 mg/kg
In vivo
  LD50 at 240 h: 1300 mg/kg
White mice
  Relative toxisity to quinidine: 8,3

## CCCC(=O)N(CCC(=O)OC)N(C)C [I-25, 3-(2,2-dimethyl-1-butyrylhydrazino)-methylpropionate]
[1]; intraperitoneal dose 5 mg/kg
  Dose of calcium chloride causing arrythmia in animals under experiment: 105,1 mg/kg
  Dose of calcium chloride causing death in animals under experiment: 112,3 mg/kg
[1]; intraperitoneal dose 25 mg/kg
  Dose of calcium chloride causing arrythmia in animals under experiment: 77,0 mg/kg
  Dose of calcium chloride causing death in animals under experiment: 95,0 mg/kg
In vivo
  LD50 at 240 h: 1750 mg/kg
White mice
  Relative toxisity to quinidine: 11,2

Source: US4633014A, “Substituted 3-hydrazinopropionates” (priority 1983, dated 1986)
